Data set [1] in a line: Cytotoxicity against African green monkey Vero cells assessed as cell viability after 72 hrs by MTT assay. The note with it: chlorocebus sabaeus. The data set is classed as cell-based. For orientation: Tetrazolium dyes change colour on reduction, which living cells bring about.
Data set [2] relates to Leishmania donovani. In words: Antileishmanial activity against amastigote stage of Leishmania donovani MHOM/IN/80/Dd8 infected in mouse J-774A.1 cells after 72 hrs by luciferase reporter gene assay. The data set is classed as functional, organism-based. Conditions: MHOM/IN/80/Dd8, J774.A1, 72 h. On the technique in general: In a reporter assay the amount or activity of a reporter protein is the signal.

Data set [3] is described as follows: (§1) Selectivity index, ratio of CC50 to African green monkey Vero cells to IC50 for amastigote stage of Leishmania donovani MHOM/IN/80/Dd8. Type of data set: functional.
The test system of another data set is Vero. The data set is described as §1. Type of data set: functional.
Data set [4] can be described thus: Immunostimulatory activity in Leishmania infected mouse J774A1 cells assessed as upregulation of IL-12 level at IC50 measured at 48 hrs by sandwich ELISA. Type of data set: functional, cell-based. Conditions: J774.A1.
The next data set has as its system Syrian golden hamster. As to the kind of experiment: Toxicity in golden hamster infected with amastigote stage of Leishmania donovani MHOM/IN/80/Dd8 assessed as appearance of abnormal behavior at 50 mg/kg/day, ip measured for 5 days. The data set is classed as organism-based, Mesocricetus auratus. On the set-up: route intraperitoneal. The note with it: in vivo, 120 h.

The subject of data set [5] is J774.A1. As to the kind of experiment: Immunostimulatory activity in Leishmania infected mouse J774A1 cells assessed as downregulation of TGF-beta level at IC50 measured at 48 hrs by sandwich ELISA. The data set is classed as functional, cell-based. (An ELISA detects its analyte on a solid surface through an enzyme-linked reagent.)
The subject of data set [6] is Leishmania donovani. As to the kind of experiment: Antileishmanial activity against amastigote stage of Leishmania donovani MHOM/IN/80/Dd8 infected in golden hamster assessed as inhibition of parasite multiplication in splen at 50 mg/kg/day, ip administered for 5 days measured on day 7 by Giemsa staining relative to control. Type of data set: functional. Conditions: MHOM/IN/80/Dd8, ip, route intraperitoneal.

Data set [7] is described as follows: Immunostimulatory activity in Leishmania infected mouse J774A1 cells assessed as upregulation of IL-12 level at IC50 measured at 24 hrs by sandwich ELISA relative to untreated infected cell. The note with it: J774.A1. The data set is classed as functional, cell-based.
Data set [8] deals with J774.A1. As to the kind of experiment: Immunostimulatory activity in Leishmania infected mouse J774A1 cells assessed as downregulation of IL-10 level at IC50 measured at 48 hrs by sandwich ELISA. The data set is classed as functional, cell-based.
Data set [9] relates to J774.A1. As to the kind of experiment: Immunostimulatory activity in Leishmania infected mouse J774A1 cells assessed as increase in nitric oxide production at IC50 measured at 24 hrs by sandwich ELISA relative to untreated infected cell. The data set is classed as functional.
Data set [10] is described as follows: Immunostimulatory activity in Leishmania infected mouse J774A1 cells assessed as upregulation of TNF-alpha level at IC50 measured at 24 hrs by sandwich ELISA relative to untreated infected cell. The data set is classed as functional, cell-based. Conditions: J774.A1.
Data set [11] concerns J774.A1. In words: Immunostimulatory activity in Leishmania infected mouse J774A1 cells assessed as downregulation of IL-10 level at IC50 measured at 24 hrs by sandwich ELISA. Type of data set: functional, cell-based.
Data set [12] is described as follows: Immunostimulatory activity in Leishmania infected mouse J774A1 cells assessed as upregulation of TNF-alpha level at IC50 measured at 48 hrs by sandwich ELISA. The note with it: J774.A1. Type of data set: functional, cell-based.
For data set [13], the system named is J774.A1. As to the kind of experiment: Immunostimulatory activity in Leishmania infected mouse J774A1 cells assessed as increase in nitric oxide production at IC50 measured at 48 hrs by sandwich ELISA. The data set is classed as functional, cell-based.
Data set [14] deals with J774.A1. As to the kind of experiment: Immunostimulatory activity in Leishmania infected mouse J774A1 cells assessed as downregulation of TGF-beta level at IC50 measured at 24 hrs by sandwich ELISA relative to untreated infected cell. Type of data set: functional.

The source made the active and inactive calls. No cut-off for these calls is given here. A value given as a limit tells only on which side of the number the result lay.

For `Clc1nc(NCCCCCOc2nc(Cl)nc(Nc3ccccc3)n2)nc(Nc2ccccc2)n1`, in data set [1], the CC50 (in general, the concentration at which the toxic effect on the cells reaches its halfway point) at 72 h amounted to 17.1 µM. For the same compound, half-maximal inhibition in the data set with Leishmania donovani [2] (IC50) was put at 8.98 µM. The “Ratio CC50/IC50” value in [3] was determined as 1.9.
On to Sodium stibogluconate, for which the Ratio CC50/IC50 with Vero was 8.56.
Regarding `CCCCCCCCCCCCCCCCOP(=O)([O-])OCC[N+](C)(C)C` [MILTEFOSINE], the IC50 (in general, the midpoint of a concentration-inhibition curve) in the data set on Leishmania donovani [2] amounted to 8.1 µM. Besides, the “Ratio CC50/IC50” value in data set [3] is 6.56.
In turn, `c1ccc(Nc2nc(NCCCCCOc3nc(Nc4ccccc4)nc(N4CCOCC4)n3)nc(N3CCOCC3)n2)cc1` yielded an IC50 in the data set with Leishmania donovani [2] of over 40 µM.
Take `CN1CCN(c2nc(NCCCCOc3nc(Nc4ccccc4)nc(N4CCN(C)CC4)n3)nc(Nc3ccccc3)n2)CC1`: in [1], the CC50 at 72 h amounted to 20.1 µM. This compound showed an IC50 with Leishmania donovani [2] of 1.33 µM. For the same compound, the “Ratio CC50/IC50” value in [3] was 15.08.
`CCCCNc1nc(NCCCCOc2nc(NCCCC)nc(Nc3ccccc3)n2)nc(Nc2ccccc2)n1`: the CC50 at 72 h in data set [1] was over 400 µM. In the data set on Leishmania donovani [2], this compound displayed an IC50 of 3.21 µM. The “Ratio CC50/IC50” value in data set [3] was over 124.61.
On the same counts, the results for `c1ccc(Nc2nc(NCCCCOc3nc(Nc4ccccc4)nc(N4CCCc5ccccc54)n3)nc(N3CCCc4ccccc43)n2)cc1` are 17.1 µM, 8.98 µM and 1.9.
Regarding `c1ccc(Nc2nc(NCCCCOc3nc(NCCN4CCOCC4)nc(Nc4ccccc4)n3)nc(NCCN3CCOCC3)n2)cc1`, the CC50 at 72 h in data set [1] worked out at 115 µM. Also, the IC50 in the data set on Leishmania donovani [2] stood at 2.91 µM. Also, the “Ratio CC50/IC50” value in data set [3] came to 39.61.
Turning to `CCCCCNc1nc(NCCCCOc2nc(NCCCCC)nc(Nc3ccccc3)n2)nc(Nc2ccccc2)n1`, the CC50 at 72 h in data set [1] was over 400 µM. Besides, the IC50 in the data set on Leishmania donovani [2] is 6.46 µM. Also, the “Ratio CC50/IC50” value in [3] is over 61.92.
As to `c1ccc(Nc2nc(NCCCCOc3nc(Nc4ccccc4)nc(N4CCOCC4)n3)nc(N3CCOCC3)n2)cc1`, in [1], the CC50 at 72 h is 276 µM. The IC50 in the data set with Leishmania donovani [2] was 3.15 µM. Further, the “Ratio CC50/IC50” value in data set [3] turned out to be 87.5.
For `Clc1nc(NCCCCOc2nc(Cl)nc(Nc3ccccc3)n2)nc(Nc2ccccc2)n1`, in that order: 7.74 µM, 10.3 µM and 0.75.
`CCN1CCN(c2nc(NCCCCOc3nc(Nc4ccccc4)nc(N4CCN(CC)CC4)n3)nc(Nc3ccccc3)n2)CC1`: in data set [1], the CC50 at 72 h is 16.2 µM. Moreover, 0.86 µM corresponded to half-maximal inhibition with Leishmania donovani [2] (IC50). In [3], the “Ratio CC50/IC50” value stood at 18.87.
As to `CCCNc1nc(NCCCCOc2nc(NCCC)nc(Nc3ccccc3)n2)nc(Nc2ccccc2)n1`, the result (in [4]; in the data set with J774.A1 [5]; with J774.A1 [8]; in [12]; in the data set with J774.A1 [13]) was inactive. Also, the Activity result in the data set on Syrian golden hamster is listed as “Non-toxic”. In addition, the CC50 at 72 h in data set [1] is 216 µM. In addition, in the data set on Leishmania donovani [6], the inhibition in vivo (usually the percentage by which the read-out fell short of the control) at 50 mg/kg/day came to 74.4%. Moreover, the fold change (FC) amounted to 3 in data set [7], 2 in the data set with J774.A1 [9], 2 in [10] and 1.8 in the data set with J774.A1 [14]. The result in the data set on J774.A1 [11] was Active. In the data set on Leishmania donovani [2], the IC50 was 1.99 µM. Moreover, in data set [3], the “Ratio CC50/IC50” value is 108.58.
With `CCCNc1nc(Nc2ccccc2)nc(OCCCCNc2nc(Nc3ccccc3)nc(NC3CC3)n2)n1`, the CC50 at 72 h in data set [1] was over 400 µM. Further, the IC50 in the data set with Leishmania donovani [2] stood at 2.65 µM. Further, the “Ratio CC50/IC50” value in data set [3] was over 150.94.
Consider `c1ccc(Nc2nc(NCCCCOc3nc(Nc4ccccc4)nc(NC4CC4)n3)nc(NC3CC3)n2)cc1`, for which the IC50 in the data set with Leishmania donovani [2] is over 40 µM.
With `CCCNc1nc(NCCCCOc2nc(Nc3ccccc3)nc(NC3CC3)n2)nc(Nc2ccccc2)n1`, in [1], the CC50 at 72 h stood at 18.2 µM. The compound also showed an IC50 in the data set on Leishmania donovani [2] of 8.26 µM. In data set [3], the “Ratio CC50/IC50” value was determined as 2.2.
For `c1ccc(Nc2nc(NCCCCOc3nc(Nc4ccccc4)nc(N4CCc5ccccc5C4)n3)nc(N3CCc4ccccc4C3)n2)cc1`, in that order: over 400 µM, 7.52 µM and over 53.19.
With `CC(C)(C)Nc1nc(NCCCCOc2nc(Nc3ccccc3)nc(NC(C)(C)C)n2)nc(Nc2ccccc2)n1`, the Activity result in the data set with Syrian golden hamster is listed as “Non-toxic”. For the same compound, in data set [1], the CC50 at 72 h is 198 µM. Also, the inhibition in vivo at 50 mg/kg/day with Leishmania donovani [6] was 62.6%. In addition, 0.77 µM corresponded to half-maximal inhibition with Leishmania donovani [2] (IC50). Also, the “Ratio CC50/IC50” value in data set [3] came out at 257.48.
As for `CCCNc1nc(NCCCCCOc2nc(NCCC)nc(Nc3ccccc3)n2)nc(Nc2ccccc2)n1`, in the data set with Leishmania donovani [2], the IC50 is over 40 µM.
In the case of `CC(C)Nc1nc(NCCCCOc2nc(Nc3ccccc3)nc(NC(C)C)n2)nc(Nc2ccccc2)n1`, the CC50 at 72 h in data set [1] was over 400 µM. This compound also displayed an IC50 with Leishmania donovani [2] of 3.51 µM. Moreover, the “Ratio CC50/IC50” value in data set [3] is given as over 113.96.
Turning to `c1ccc(Nc2nc(NCCCCOc3nc(NCCCN4CCOCC4)nc(Nc4ccccc4)n3)nc(NCCCN3CCOCC3)n2)cc1`, the CC50 at 72 h in data set [1] was 13.8 µM. The IC50 with Leishmania donovani [2] amounted to 1.7 µM. Further, in data set [3], the “Ratio CC50/IC50” value turned out to be 8.11.
On the same counts, the results for `N=C(N)c1ccc(OCCCCCOc2ccc(C(=N)N)cc2)cc1` [PENTAMIDINE] are 85.9 µM, 13.7 µM and 6.27.

For the origin of these results see ChEMBL document CHEMBL3091271, “Discovery of triazine mimetics as potent antileishmanial agents” (ACS Med Chem Lett, 2013).
